Several values for one entry are separate records, joined by “and”; a condition that tells them apart may be missing. Equal values may be shown once. Entries after “also recorded” stand apart in the source; their conditions may differ. Read-outs that look alike come from different tables or passages of the source.
Tests used:
human sperm [1] = test system: human sperm
Protocol: (§1) Sperm were isolated from the seminal plasma as previously described in Brown et al., 1995. The sperm pellet was resuspended in phosphate buffered saline (PBS), pH=7.4, and divided into 4 aliquots. Each aliquot (equal sperm concentrations) was incubated at 37° C. in PBS with H2O2 concentrations of 0, 10, 50, and 100 μM for 15 min and 1 hr. All aliquots were divided into 2 portions. One portion was used to determine LPO. The remaining portion was centrifuged at 1500 g for 15 min. at room temperature, the sperm in the pellet resuspended and analyzed in the HSAA.

human sperm [2] = test system: human sperm; remark: listed apart in the source
Protocol: as §1
The HSAA was performed as described by Brown et al. 1995. Briefly, sperm are washed and permeabilized using lysolecithine.
(§2) In a micro-centrifuge tube, the reaction mix was prepared; 8 μl of sperm suspension (200,000 sperm) was added to 100 μLof frog egg extract that contained 8 μl of ^3H-TTP (8 μCi). At 5 and 15 min, and 2 and 3 hr incubation times in the egg extract, 5 μl aliquots were taken, wet mounts prepared, and phase contrast microscopy used to determine the percentage of sperm that were fully decondensed and recondensed, respectively, scoring 50 nuclei per slide. At the 5 and 15 min, and 2 and 3 hr time points, 25 μl aliquots of the reaction mix was removed and mixed with 75 μl PBS. Two 50 μl cytopreps were made for each aliquote as described by Brown et al., 1992. The dried cytopreps were fixed in one part acetic acid, and three parts cold methanol, and Giemsa stained for 1 hr followed by a 10 min wash in Giemsa buffer. Slides were examined using light microscopy and analyzed using Metamorph software. Autoradiography was performed using cytoprep slides as described by Brown et al. 1995.
Sperm chromatin decondensation and nuclear recondensation were evaluated in sperm exposed to increasing concentrations of H2O2 for 15 min and 1 hr using the HSAA. Sperm were analyzed at different incubation times in the egg extract using the image analysis Methamorph software system. The sperm nuclear activation was scored in 5 categories (FIG. 2): 1) full decondensation: sperm diameter 25-30 μm (FIG. 2C), 2) partial decondensation: sperm diameter <25 μm (FIG. 2B), 3) non-decondensed (FIG. 2A), 4) hyperdecondensed: sperm diameter >(25-30 μm) [FIGS. 2b and c], and 5) full recondensation (FIGS. 2D and E).

human sperm [3] = test system: human sperm; remark: listed apart in the source
Protocol: Thymidine incorporation into sperm was scored as follows: unlabeled (less than 5 black granules), medium label (from 5 to 25 black granules), and heavy label (more than 25 black granules). Each value is the mean±SD. […] (5a and 5b) ^3H-TTP incorporation after a 5 min incubation in the egg extract.
as §2
The DNA synthesis was determined by autoradiography as previously described in Materials and Methods.

sperm = settings: comet assay; cited from earlier work
[4] = 10 μM H2O2, 15 min and 1 hr exposures, 5 min incubation in egg extract
[5] = 10 μM H2O2, 15 min and 1 hr exposures, 15 min incubation in egg extract
[6] = 50 μM H2O2, 15 min exposure, 2 and 3 hr incubation in egg extract (combined)
[7] = 50 μM H2O2, 15 min exposure, 5 min incubation in egg extract
[8] = 50 μM H2O2, 15 min exposure, 15 min incubation in egg extract
[9] = 50 μM H2O2, 1 hr exposure, 2 and 3 hr incubation in egg extract (combined)
[10] = 50 μM H2O2, 1 hr exposure, 5 min incubation in egg extract
[11] = 50 μM H2O2, 1 hr exposure, 15 min incubation in egg extract
[12] = 100 μM H2O2, 15 min and 1 hr exposures, 5 min incubation in egg extract
[13] = 100 μM H2O2, 15 min exposure, 2 and 3 hr incubation in egg extract (combined)
[14] = 100 μM H2O2, 15 min exposure, 5 min incubation in egg extract
[15] = 100 μM H2O2, 15 min exposure, 15 min incubation in egg extract
[16] = 100 μM H2O2, 1 hr exposure, 2 and 3 hr incubation in egg extract (combined)
[17] = 100 μM H2O2, 1 hr exposure, 5 min incubation in egg extract
[18] = 100 μM H2O2, 1 hr exposure, 15 min incubation in egg extract
[19] = 50 μM H2O2, 15 min exposure, 3 hr incubation in egg extract
[20] = 50 μM H2O2, 1 hr exposure, 2 hr incubation in egg extract
[21] = 50 μM H2O2, 1 hr exposure, 3 hr incubation in egg extract
[22] = 100 μM H2O2, 15 min exposure, 3 hr incubation in egg extract
[23] = 100 μM H2O2, 1 hr exposure, 2 hr incubation in egg extract
[24] = 100 μM H2O2, 1 hr exposure, 3 hr incubation in egg extract

**Q.** Which results are given for `OO` [H2O2, hydrogen peroxide]?
**A.** lipid peroxidation (MDA and hydroxyalkenals), means compared to the untreated control sperm (human sperm [1]; 10, 50 and 100 μM H2O2, 1 hr exposure): significantly different; lipid peroxidation (MDA and hydroxyalkenals), means compared to the untreated control sperm (human sperm [1]; 50 and 100 μM H2O2, 15 min exposure): significantly different; recondensed sperm (human sperm [2]; 10 μM H2O2, 15 min and 1 hr exposure, 2 and 3 hr incubation in egg extract (combined)): 98±2%; partially decondensed sperm (human sperm [2]; [4]): Approximately 30%; recondensed sperm (human sperm [2]; [4]): No recondensed sperm were observed; sperm showing no decondensation (human sperm [2]; [4]): 35-40%; fully decondensed sperm (human sperm [2]; [5]): Approximately 94%; fully decondensed sperm (human sperm [2]; 10 μM H2O2, 15 min exposure, 5 min incubation in egg extract): Approximately 28±4%; recondensed sperm (human sperm [2]; 10 μM H2O2, 15 min exposure, 15 min incubation in egg extract): No recondensed sperm were observed; fully decondensed sperm (human sperm [2]; 10 μM H2O2, 1 hr exposure, 5 min incubation in egg extract): ~30±6%; non-decondensed sperm (human sperm [2]; 10 μM H2O2, both time points (15 min and 1 hr exposure), 15 min incubation in egg extract): Approximately 5%; hyper-decondensed sperm (human sperm [2]; 10 μM H2O2, 2 and 3 hr incubation in egg extract (combined)): No sperm were hyper-decondensed; hyperdecondensed sperm (human sperm [2]; 10 μM H2O2, 5 min incubation in egg extract): No sperm were hyperdecondensed; hyperdecondensed sperm (human sperm [2]; 10 μM H2O2, 15 min incubation in egg extract): No sperm were hyperdecondensed; partially decondensed sperm (human sperm [2]; 50 μM H2O2, 15 min and 1 hr exposures, 5 min incubation in egg extract): Approximately 1%; hyper-decondensed sperm (human sperm [2]; [6]): 35.2%; recondensed sperm (human sperm [2]; [6]): 66±2.3%; fully decondensed sperm (human sperm [2]; [7]): 43.3±3.7%; hyperdecondensed sperm (human sperm [2]; [7]): 38.4%; non-decondensed sperm (human sperm [2]; [7]): 15±3%; recondensed sperm (human sperm [2]; [7]): No recondensed sperm were observed; fully decondensed sperm (human sperm [2]; [8]): 53±3%; hyperdecondensed sperm (human sperm [2]; [8]): 45.2%; recondensed sperm (human sperm [2]; [8]): No recondensed sperm were observed; hyper-decondensed sperm (human sperm [2]; [9]): 30±2%; recondensed sperm (human sperm [2]; [9]): 70±3%; fully decondensed sperm (human sperm [2]; [10]): 46.6±6%; hyperdecondensed sperm (human sperm [2]; [10]): 31±−4% and 31±4%; non-decondensed sperm (human sperm [2]; [10]): 18±4%; recondensed sperm (human sperm [2]; [10]): 5±3%; fully decondensed sperm (human sperm [2]; [11]): 58±2%; hyperdecondensed sperm (human sperm [2]; [11]): 30±2%; recondensed sperm (human sperm [2]; [11]): 10±2%; non-decondensed sperm (human sperm [2]; [12]): 10±2%; partially decondensed sperm (human sperm [2]; [12]): Approximately 1%; hyper-decondensed sperm (human sperm [2]; [13]): 45±2%; recondensed sperm (human sperm [2]; [13]): 57±2%; fully decondensed sperm (human sperm [2]; [14]): 56.6±4.7%; hyperdecondensed sperm (human sperm [2]; [14]): 26%; recondensed sperm (human sperm [2]; [14]): 8±2%; fully decondensed sperm (human sperm [2]; [15]): 48±1.5%; hyperdecondensed sperm (human sperm [2]; [15]): 37%; recondensed sperm (human sperm [2]; [15]): 15±3%; hyper-decondensed sperm (human sperm [2]; [16]): 45±3%; recondensed sperm (human sperm [2]; [16]): 54±2%; fully decondensed sperm (human sperm [2]; [17]): 64.5±4.5%; hyperdecondensed sperm (human sperm [2]; [17]): 11±4%; recondensed sperm (human sperm [2]; [17]): 15±2%; fully decondensed sperm (human sperm [2]; [18]): 47±2%; hyperdecondensed sperm (human sperm [2]; [18]): 33±3.5%; recondensed sperm (human sperm [2]; [18]): 20±2%; sperm nuclei with abnormal recondensation and nuclear arrest in the hyperdecondensed state (human sperm [2]; 50 and 100 μM H2O2, 3 hr incubation in egg extract): 33-42%; non-decondensed sperm (human sperm [2]; any other H2O2 concentrations (50, 100 μM) at any of the time points, 15 min incubation in egg extract): no sperm were non-decondensed; 3H-TTP incorporation (human sperm [3]; 10 μM H2O2, 15 min and 1 hr exposure, 2 and 3 hr incubations in frog egg extract): normal ^3H-TTP incorporation; sperm positive for 3H-TTP incorporation (human sperm [3]; [4]): No sperm were positive for ^3H-TTP incorporation; also recorded: no incorporation of ^3H-TTP; sperm positive for 3H-TTP incorporation (human sperm [3]; [5]): No sperm were positive for ^3H-TTP incorporation; also recorded: no incorporation of ^3H-TTP; sperm heavily labeled by 3H-TTP (human sperm [3]; 10 μM H2O2, 15 min and 1 hr exposures, 2 hr incubation in egg extract): 99±1%; sperm heavily labeled by 3H-TTP (human sperm [3]; 10 μM H2O2, 15 min and 1 hr exposures, 3 hr incubation in egg extract): 98±2%; sperm with medium 3H-TTP labeling (human sperm [3]; 50 μM H2O2, 15 min exposure (first of '50 and 100 μM for 15 min and 1 hr, respectively'), 2 hr incubation in egg extract): approximately 14.5±4%; sperm heavily labeled by 3H-TTP (human sperm [3]; [7]): 10±3.5%; sperm with medium 3H-TTP labeling (human sperm [3]; [7]): 18±3.5%; sperm heavily labeled by 3H-TTP (human sperm [3]; [8]): 10±2%; sperm with medium 3H-TTP labeling (human sperm [3]; [8]): approximately 20±3%; sperm heavily labeled by 3H-TTP (human sperm [3]; 50 μM H2O2, 15 min exposure, 2 hr incubation in egg extract): 85±5%; sperm heavily labeled by 3H-TTP (human sperm [3]; [19]): approximately 78±6%; sperm with medium 3H-TTP labeling (human sperm [3]; [19]): approximately 16.5±2%; sperm heavily labeled by 3H-TTP (human sperm [3]; [10]): 28±2%; sperm with medium 3H-TTP labeling (human sperm [3]; [10]): 36±3%; sperm heavily labeled by 3H-TTP (human sperm [3]; [11]): 17.5±7.5%; sperm with medium 3H-TTP labeling (human sperm [3]; [11]): Approximately 21±5%; sperm heavily labeled by 3H-TTP (human sperm [3]; [20]): 56.5±3%; sperm with medium 3H-TTP labeling (human sperm [3]; [20]): Approximately 36±2%; sperm heavily labeled by 3H-TTP (human sperm [3]; [21]): Approximately 75±3%; sperm with medium 3H-TTP labeling (human sperm [3]; [21]): Approximately 25±3%; sperm with medium 3H-TTP labeling (human sperm [3]; 100 μM H2O2 (second of '50 and 100 μM for 15 min and 1 hr, respectively'), 2 hr incubation in egg extract): ~43.5±5%; sperm heavily labeled by 3H-TTP (human sperm [3]; [14]): 15±5%; sperm with medium 3H-TTP labeling (human sperm [3]; [14]): Approximately 25±5%; sperm heavily labeled by 3H-TTP (human sperm [3]; [15]): 50±5%; sperm with medium 3H-TTP labeling (human sperm [3]; [15]): ~30±10%; sperm heavily labeled by 3H-TTP (human sperm [3]; 100 μM H2O2, 15 min exposure, 2 hr incubation in egg extract): Approximately 64±2%; sperm heavily labeled by 3H-TTP (human sperm [3]; [22]): ~85±5%; sperm with medium 3H-TTP labeling (human sperm [3]; [22]): ~14.5±3%; sperm heavily labeled by 3H-TTP (human sperm [3]; [17]): 31±3%; sperm with medium 3H-TTP labeling (human sperm [3]; [17]): ~48±2%; sperm heavily labeled by 3H-TTP (human sperm [3]; [18]): 45±9%; sperm with medium 3H-TTP labeling (human sperm [3]; [18]): ~37±9%; sperm heavily labeled by 3H-TTP (human sperm [3]; [23]): ~71±3%; sperm with medium 3H-TTP labeling (human sperm [3]; [23]): ~28.5±2.5%; sperm heavily labeled by 3H-TTP (human sperm [3]; [24]): ~60±4%; sperm with medium 3H-TTP labeling (human sperm [3]; [24]): ~40±4%; H2O2 concentration at which induction of DNA fragmentation was significant (sperm): 200 µM

Reference: patent US20090053722A1, “SDAD ASSAY AND USES THEREOF” (priority 2007, published 2009)
